This passage reports IC50 results from patent publication US7354921B2, “Pyrazolotriazines as kinase inhibitors” (Schering Corporation, priority 2004, dated 2008).

This experiment has as its target T1, CDK2 (Homo sapiens, UniProt P24941).
T1 construct: The expressed protein is approximately 34 kDa in size; made in house; host or cells: SF9 insect cells (recombinant baculovirus, pFASTBAC)
Briefly: CDK2 in vitro kinase assay (cyclin A or E-dependent), 33P-ATP SPA. The experiment is classed as biochemical. The following applies: recombinant cyclin-CDK2 complex (cyclin A or E, not specified); biotinylated Histone H1 peptide substrate; 1 hour at room temperature; read-out: CDK 2 IC50.

`CCc1cnn2c(NCc3cncnc3)nc(N3CCCC[C@H]3CCO)nc12`: the IC50 – broadly, the concentration needed to halve the response being measured – is 0.56 nM.

For the molecule `CCc1cnn2c(NCc3ccn(CC)c(=O)c3)nc(N3CCCC[C@H]3CCO)nc12`, the IC50 was found to be 0.52 nM.

As for `Cn1cc(CNc2nc(N3CCCC[C@H]3CCO)nc3c(C4CC4)cnn23)ccc1=O`, the IC50 was 3.1 nM.

As for `CCc1cnn2c(Nc3ccc(S(C)(=O)=O)cc3)nc(N3CCCC[C@H]3CCO)nc12`, the IC50 was 106 nM.

As to `CCc1cnn2c(NCc3ccnnc3)nc(N3CCCC[C@H]3CCO)nc12`, the half-inhibitory concentration (IC50) worked out at 1.2 nM.

For the molecule `CCc1cnn2c(NCc3cccnc3)nc(N3CCCC[C@H]3CCO)nc12`, the IC50 was 0.88 nM.

As to `CCc1cnn2c(NCc3ccc(=O)n(C)c3)nc(N3CCCC[C@H]3CCO)nc12`, the IC50 turned out to be 0.48 nM.
